Experimental data published in patent US7951842B2, “Use of Cupuassu butter based amphoteric amidoamines as amphoteric surfactants” (Cognis Brasil Ltda., priority 2004, dated 2011).

Legend:
animals = settings: in vivo
Text: The toxicological profile of the Cupuassuamido propyl betaine was compared to Cocamido propyl betaine.

Method for Red Blood Cell: The Red Blood Cell Test (RBC) was carried out with the combination of Sodium Lauryl Ether Sulfate (SLES) and Cupuassuamido Propyl Betaine (CupAPB) or Sodium Lauryl Ether Sulfate (SLES) and Cocamido Propyl Betaine (CAPB) in different concentrations.

Row | H/O (Red Blood Cell) | oxidation (O) (Red Blood Cell) | Substance | Cumulative Dermic Irritation (animals) | Ocular Irritability (animals) | Primary Dermic Irritation (animals) | hemolysis (H) (Red Blood Cell)
1 |  |  | Cupuassuamido propyl betaine | Minimum irritating | Not irritating | Not irritating | 
2 |  |  | Cocamido propyl betaine | Moderately irritating | Moderately irritating | Minimum irritating | 
3 | 17.1 | 16.10 | Sodium Laureth Sulfate [SLES (7.10%)] |  |  |  | 275.0
